Assay results reported in ChEMBL document CHEMBL1201862, “PubChem BioAssay data set” (2004).
Calls of active or inactive are those of the source.

What was measured:
[1] = molecular target: NAD-dependent protein deacylase sirtuin-5, mitochondrial (Homo sapiens, UniProt Q9NXA8); assay: SIRT5 desuccinylase inhibitors, dose response, biochemical, fluorescence imaging, cherry-pick, set 5 (AID 720591);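 also: desuccinylation of succinyl peptide AMC substrate read as fluorescence after trypsin release; potency of inhibitors that lower fluorescence and may act on trypsin instead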
NAD-dependent protein deacylase sirtuin-5, mitochondrial, sequence (Q9NXA8 whole entry): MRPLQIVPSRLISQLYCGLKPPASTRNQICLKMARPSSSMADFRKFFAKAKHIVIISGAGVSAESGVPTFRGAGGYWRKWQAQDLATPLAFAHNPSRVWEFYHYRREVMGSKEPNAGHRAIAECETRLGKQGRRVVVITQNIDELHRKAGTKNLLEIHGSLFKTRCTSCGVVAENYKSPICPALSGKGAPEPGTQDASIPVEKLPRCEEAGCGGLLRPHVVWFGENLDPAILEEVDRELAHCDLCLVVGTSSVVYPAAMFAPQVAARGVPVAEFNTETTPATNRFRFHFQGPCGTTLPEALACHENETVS

[2] = M. tuberculosis H37Rv growth inhibitors, H37Rv strain (AID 1626); format: functional
Leucine aminopeptidase = molecular target: T1, Leucine aminopeptidase (Plasmodium falciparum 3D7, UniProt Q8IL11); assay: P. falciparum M17LAP inhibitors, primary screen, biochemical, fluorogenic H-Leu-NHMec substrate, 1536-well (AID 1619); format: functional
T1 sequence (Q8IL11 whole entry): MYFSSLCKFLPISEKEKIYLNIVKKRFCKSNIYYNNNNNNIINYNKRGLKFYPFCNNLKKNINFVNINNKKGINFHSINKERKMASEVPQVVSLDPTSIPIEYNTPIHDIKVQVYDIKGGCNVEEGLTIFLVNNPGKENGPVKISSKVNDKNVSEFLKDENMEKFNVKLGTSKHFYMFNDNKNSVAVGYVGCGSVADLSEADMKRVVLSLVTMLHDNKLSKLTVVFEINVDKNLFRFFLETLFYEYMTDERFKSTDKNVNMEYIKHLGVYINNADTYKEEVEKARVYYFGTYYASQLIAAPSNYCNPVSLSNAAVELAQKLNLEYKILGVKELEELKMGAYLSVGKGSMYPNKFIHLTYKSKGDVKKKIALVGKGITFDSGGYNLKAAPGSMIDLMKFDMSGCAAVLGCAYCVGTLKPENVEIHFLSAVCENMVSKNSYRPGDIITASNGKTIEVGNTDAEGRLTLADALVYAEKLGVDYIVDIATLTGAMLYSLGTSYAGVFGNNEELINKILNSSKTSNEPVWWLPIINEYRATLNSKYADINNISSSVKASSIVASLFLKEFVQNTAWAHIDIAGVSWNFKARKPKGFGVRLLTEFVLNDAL

[3] = MC4R antagonists, dose response, counter-screen for LGR2 antagonist project, cell-based, plate reader, cherry pick (AID 743444); format: functional;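 also: transfected HEK 293 cells stimulated with alpha-MSH peptide; potency of inhibitors of the alpha-MSH evoked signal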
[4] = HEK293 cell cytotoxicity, dose response, cytotoxicity control, plate reader, cherry-picked samples (AID 743446); format: functional, cell-based
[5] = HepG2 cell cytotoxicity, dose response, cytotoxicity control, plate reader, cherry-pick, antagonist series (AID 743416); format: functional, cell-based
[6] = molecular target: T2, Heat shock factor protein 1 (Mus musculus, UniProt P38532); assay: HSF1 potentiators in luciferase reporter cells, confirmation, cell-based, NIH3T3, luminescence, dose retest (AID 435004); format: functional;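 also: stress induced by proteasome inhibitor MG132 added 30 min after compound; luciferase reporter driven by HSF1 response element in NIH3T3 cells; actives raise luminescence as potentiators of the MG132 stress response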
T2 sequence (P38532 whole entry): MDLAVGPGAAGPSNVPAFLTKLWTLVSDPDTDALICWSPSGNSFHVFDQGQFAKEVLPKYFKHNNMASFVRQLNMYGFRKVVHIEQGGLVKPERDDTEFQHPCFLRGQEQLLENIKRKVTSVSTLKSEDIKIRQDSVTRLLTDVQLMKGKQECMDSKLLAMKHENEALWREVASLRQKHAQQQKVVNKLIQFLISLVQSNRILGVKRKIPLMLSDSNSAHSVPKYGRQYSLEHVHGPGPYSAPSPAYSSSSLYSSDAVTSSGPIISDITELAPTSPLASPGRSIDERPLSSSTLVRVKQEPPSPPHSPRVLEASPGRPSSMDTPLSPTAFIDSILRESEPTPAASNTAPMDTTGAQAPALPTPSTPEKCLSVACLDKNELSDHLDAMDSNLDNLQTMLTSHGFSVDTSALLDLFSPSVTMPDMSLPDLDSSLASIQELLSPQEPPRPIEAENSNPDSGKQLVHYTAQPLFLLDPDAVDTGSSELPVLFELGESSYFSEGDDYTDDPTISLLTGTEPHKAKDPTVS

[7] = A549 cell cytotoxicity, dose response, cytotoxicity control, plate reader, cherry-pick, antagonist series (AID 743412); format: functional, cell-based
[8] = molecular target: T3, Microphthalmia-associated transcription factor (Homo sapiens, UniProt O75030); assay: TRPM1 promoter luciferase signal decrease, dose response, MITF inhibitor project, cell-based, SK-MEL-5, cherry-picked, set 3 (AID 493073); format: functional
T3 sequence (O75030 whole entry): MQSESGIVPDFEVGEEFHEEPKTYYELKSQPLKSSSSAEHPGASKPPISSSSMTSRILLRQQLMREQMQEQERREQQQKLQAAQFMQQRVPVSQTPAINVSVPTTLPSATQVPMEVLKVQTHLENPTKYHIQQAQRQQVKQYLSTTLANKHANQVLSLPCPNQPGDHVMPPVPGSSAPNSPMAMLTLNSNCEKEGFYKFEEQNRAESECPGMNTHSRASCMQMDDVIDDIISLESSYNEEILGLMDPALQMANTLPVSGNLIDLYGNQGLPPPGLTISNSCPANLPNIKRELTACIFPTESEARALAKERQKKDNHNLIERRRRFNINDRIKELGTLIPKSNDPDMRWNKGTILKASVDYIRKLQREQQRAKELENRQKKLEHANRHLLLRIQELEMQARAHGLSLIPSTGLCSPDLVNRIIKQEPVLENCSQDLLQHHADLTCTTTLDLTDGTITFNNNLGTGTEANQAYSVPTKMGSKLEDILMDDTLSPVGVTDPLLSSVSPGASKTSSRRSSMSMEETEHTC

[9] = LGR2 antagonists, dose response, cell-based, HEK293, CRE-luciferase reporter, cherry pick, set 2 (AID 743343); format: functional;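 also: transfected cells were stimulated with diluted bursicon conditioned medium after compound addition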
[10] = inhibitors of intracellular T. cruzi replication, confirmation, NIH3T3 host cells, beta-gal luminescence (AID 2044); format: functional, cell-based;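 also: intracellular parasites grown in NIH/3T3 mouse fibroblasts as host cells; luminescent beta-galactosidase reporter signal from transgenic T. cruzi replicating inside host cells; inhibitors lower the luminescence signal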
[11] = cytotoxicity toward NIH3T3 fibroblasts, dose response, counter-screen, cell-based, ATP luminescence, mouse fibroblasts (AID 2010); format: functional;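 also: cells exposed to compound for about 90 hours before reading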
[12] = molecular target: Disintegrin and metalloproteinase domain-containing protein 17 (Homo sapiens, UniProt P78536); assay: ADAM17 protease inhibitors, dose response, counter-screen for ADAM10 exosite inhibitor project, biochemical, quenched FRET substrate (AID 743253)
Disintegrin and metalloproteinase domain-containing protein 17, sequence (P78536 whole entry, the tested form may be a part): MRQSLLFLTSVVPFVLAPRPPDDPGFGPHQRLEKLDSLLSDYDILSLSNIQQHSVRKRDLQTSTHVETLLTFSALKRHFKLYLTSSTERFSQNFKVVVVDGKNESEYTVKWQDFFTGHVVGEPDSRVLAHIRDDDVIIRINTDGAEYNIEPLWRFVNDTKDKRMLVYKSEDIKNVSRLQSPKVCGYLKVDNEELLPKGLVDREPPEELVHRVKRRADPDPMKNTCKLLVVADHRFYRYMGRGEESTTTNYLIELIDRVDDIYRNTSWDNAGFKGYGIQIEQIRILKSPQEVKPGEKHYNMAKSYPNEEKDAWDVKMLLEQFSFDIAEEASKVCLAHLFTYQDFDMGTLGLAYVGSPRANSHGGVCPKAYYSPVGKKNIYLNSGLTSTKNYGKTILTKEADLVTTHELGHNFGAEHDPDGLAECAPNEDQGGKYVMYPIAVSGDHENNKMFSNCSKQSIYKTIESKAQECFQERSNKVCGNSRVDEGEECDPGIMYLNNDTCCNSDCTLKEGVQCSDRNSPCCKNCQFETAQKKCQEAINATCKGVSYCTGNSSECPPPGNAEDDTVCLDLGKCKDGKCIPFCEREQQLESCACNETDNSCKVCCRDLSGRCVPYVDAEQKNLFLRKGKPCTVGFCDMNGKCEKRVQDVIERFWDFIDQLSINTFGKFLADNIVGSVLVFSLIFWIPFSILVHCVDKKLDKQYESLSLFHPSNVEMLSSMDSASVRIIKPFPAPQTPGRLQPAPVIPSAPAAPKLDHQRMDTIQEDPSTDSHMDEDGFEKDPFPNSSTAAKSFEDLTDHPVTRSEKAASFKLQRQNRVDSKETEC

[13] = ADAM10 inhibitors, peptide cleavage, dose response, biochemical, QFRET (AID 743254);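 also: ADAM10 enzyme with the DM2 quenched FRET peptide as substrate; EDANS fluorescence gain as the protease cuts the substrate; inhibitor potency against ADAM10 proteolytic activity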
[14] = inhibitors of firefly luciferase expression or activity, dose response, H4 neuroglioma cells, luminescence (AID 1990); format: functional, cell-based
[15] = molecular target: T2, Heat shock factor protein 1; assay: inhibition of MG132-induced HSE-luciferase signal, confirmation, cell-based, NIH3T3, luminescence, dose retest (AID 2382); format: functional;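 also: NIH3T3 fibroblasts with HSF1-driven luciferase reporter stressed by proteasome inhibitor MG132; luminescence from HSF1-driven luciferase expression after 8 hours of MG132 stress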
[16] = molecular target: Photoreceptor-specific nuclear receptor (Homo sapiens, UniProt Q9Y5X4); format: functional, cell-based;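 also: CHO-S cells with Gal4-NCOR and VP16-NR2E3 two-hybrid luciferase reporter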
Photoreceptor-specific nuclear receptor, sequence (Q9Y5X4 whole entry, the tested form may be a part): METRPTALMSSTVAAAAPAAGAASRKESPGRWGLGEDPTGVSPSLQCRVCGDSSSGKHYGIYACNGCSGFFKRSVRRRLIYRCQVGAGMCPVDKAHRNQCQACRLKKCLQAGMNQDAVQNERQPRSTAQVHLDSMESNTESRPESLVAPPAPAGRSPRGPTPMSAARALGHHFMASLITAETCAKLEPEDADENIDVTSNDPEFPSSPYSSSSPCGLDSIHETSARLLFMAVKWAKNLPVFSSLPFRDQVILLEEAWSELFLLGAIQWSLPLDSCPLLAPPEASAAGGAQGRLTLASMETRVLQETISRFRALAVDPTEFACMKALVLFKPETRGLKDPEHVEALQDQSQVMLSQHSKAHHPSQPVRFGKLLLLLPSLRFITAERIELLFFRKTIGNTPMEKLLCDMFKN

[17] = Luminescence Cell-Based Dose Retest to Confirm Inhibitors of Cancer Stem Cells. [Related pubchem assays (depositor defined):AID2717, AID2721]; format: functional; settings: Homo sapiens
[18] = HEp-2 cell cytotoxicity, dose response, cytotoxicity control for RSV inhibitor project, HTS (AID 2410); format: functional; settings: human respiratory syncytial virus
[19] = growth suppression of beta-catenin-knockout colon cells, dose response, cell-based, HCT116, human colon tumor (AID 1045); format: functional;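 also: HCT116 colon tumor cells with beta catenin knocked out; cells exposed to compound for 60 hours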
[20] = growth suppression of PTEN-null colon cells, dose response, cell-based, HCT116 PTEN knockout (AID 1047); format: functional;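 also: HCT116 colon tumor cells with PTEN knocked out; cells exposed to compound for 60 hours before readout; potency for loss of cell viability measured by luminescence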

Question: For `CCOC(=O)c1cc(-c2cc(OC)c(OC)c(OC)c2)nc2c1c(=O)[nH]c(=O)n2Cc1ccccc1`, which AC50 [1] is on record?
Answer: > 30 µM (inactive)

Question: For `CCc1ccc(NC(=O)CSc2nnc(-c3ccccn3)n2C)cc1`, which IC50 [2] is on record?
Answer: > 100 µM (active)

Question: With `CCCN(CC1CC1)C(=O)COC(=O)c1ccc2c(c1)C(=O)N(c1ccc(OCC)cc1)C2=O` as the compound, how does the IC50 [2] read?
Answer: > 100 µM (active)

Question: Which IC50 (Leucine aminopeptidase) does the source give for `COc1ccc(-n2c(SCC(=O)Nc3ccc(C(=O)O)cc3)nnc2-c2cccs2)cc1` here?
Answer: 14.5 µM (active)

Question: With `CC(=O)N1c2ccc(S(=O)(=O)NCCC(=O)NC3CCC(C)CC3)cc2CC1C` (stereo not given) as the compound, how does the AC50 [1] read?
Answer: > 30 µM (inactive)

Question: What does the source list for `O=S(=O)(CC(CN1CCCCC1)N1CCCCC1)c1ccc2ccccc2c1` (stereo not given)?
Answer: AC50 [3]: 14 µM (active); AC50 [4]: 18.8 µM (active); AC50 [5]: 14.6 µM (active); EC50 [6]: 13.9 µM (active); AC50 [7]: 11.6 µM (active); AC50 [8]: 12.5 µM (active); AC50 [9]: 22.3 µM (active); EC50 [10]: 2.65 µM (active); EC50 [11]: > 60 µM (not active)

Question: Which results are given for `Oc1ccc(C[C@H]2CNC(=S)N2C[C@H]2CCCN2C[C@H](Cc2ccccc2)N2C[C@H](Cc3ccc(O)cc3)N(CCc3ccccc3)C2=S)cc1`?
Answer: IC50 [12]: > 69.5 µM (inactive); IC50 [13]: 15.1 µM (inactive)

Question: With `O=C(c1ccc(CSc2nc3cc[nH]cc-3n2)cc1)N1CCN(c2cccc(Cl)c2)CC1` as the compound, how does the AC50 [4] read?
Answer: 50.4 µM (active)

Question: And the AC50 [5]?
Answer: 32.6 µM (active)

Question: What about the AC50 [7] of the same compound?
Answer: 38 µM (active)

Question: What about the EC50 [10] of the same compound?
Answer: 1.39 µM (active)

Question: And the EC50 [11]?
Answer: > 60 µM (not active)

Question: For `COc1ccc(CCCNC(=O)C2CCC(=O)N(Cc3ccc(Cl)cc3)C2)cc1` (stereo not given), which AC50 [1] is on record?
Answer: > 30 µM (inactive)

Question: Which results are given for `CC(O)(c1ccccc1)c1nc(-c2cc3ccccc3o2)cs1` (stereo not given)?
Answer: IC50 [12]: > 69.5 µM (inactive); IC50 [13]: 17.2 µM (inactive)

Question: Which AC50 [3] does the source give for `Cc1cc(C(=O)CSc2nnc3ccccn23)c(C)n1-c1ccccc1` here?
Answer: 1.39 µM (active)

Question: What about the EC50 [14] of the same compound?
Answer: 0.844 µM (active)

Question: And the EC50 [15]?
Answer: < 0.16 µM (active)

Question: And the IC50 [16]?
Answer: 14.4 µM (inactive)

Question: And the AC50 [7]?
Answer: > 52 µM (inactive)

Question: And the AC50 [8]?
Answer: 2.08 µM (active)

Question: And the AC50 [9]?
Answer: 1.06 µM (active)

Question: Which IC50 [12] does the source give for `Cc1ccccc1/N=C1\SC(CC(=O)Nc2ccc3ccccc3c2)C(=O)N1Cc1ccccn1` (stereo not given) here?
Answer: > 69.5 µM (inactive)

Question: What about the EC50 [6] of the same compound?
Answer: > 120 µM (inactive)

Question: And the AC50 [17]?
Answer: 4.16 µM (active)

Question: What about the IC50 [13] of the same compound?
Answer: 12.5 µM (inactive)

Question: What does the source list for `COc1ccc(/C=C/C(=O)c2ccc(C)c([N+](=O)[O-])c2)cc1O`?
Answer: CC50 [18]: 15.8 µM (active); EC50 [19]: 4.65 µM (active); EC50 [20]: 5.39 µM (active); IC50 [2]: > 100 µM (active)

Question: For `CNC(=O)CSc1nnc(-c2ccco2)n1-c1cccc(C)c1`, which AC50 [1] is on record?
Answer: > 30 µM (inactive)
